In one data set the test system is mouse vas deferens. As to the kind of experiment: Mouse vas deferens assay: inhibition of electrically-induced contraction. As to conditions: cumulative addition; data not shown. The text has this:
The compounds of the present invention are pharmacologically active, e.g. as nociceptin agonists or partial agonists, and a useful method of showing activity is described by Hughes J., Kosterlitz H. W., Leslie F. M.: Effect of morphine on adrenergic transmission in the mouse vas deferens. Assessment of agonist and antagonist potencies of narcotic analgesics^[4]. The isolated electrically stimulated mouse vas deferens preparation has been widely used to evaluate the functional pharmacological actions of opioid agonists and antagonists in vitro^[5].
(§1) The vas deferens from male NMRI albino mice weighing 30-40 g were placed in a SCHULER organ bath Type 809, Hugo Sachs Elektronik, Germany, and perfused with a 37° C., modified Krebs solution (NaCl 6,9 g/L, KCl 0.35 g/L, KH2PO4 0.16 g/L, NaHCO3 2.1 g/L, Glucose H2O 2.0 g/L, CaCl2 2.52 mL/L). The solution was gassed with carbogen (95% O2 and 5% CO2) throughout the experiment. The tissue was electrically stimulated through two silver electrodes directly in the organ bath using a HSE Stimulator I Type 215. Stimulation of the tissue was performed by applying a supramaximal voltage (15 Volts) in trains of 10 square pulses every 60 s, each of 1 ms duration with a frequency of […]. Concentration-response curves were performed by adding test substances that relax mouse vas deferens smooth muscles cumulatively to the organ baths. The test substances used in the assay were nociceptin in an isotonic saline solution, Compound 1 (as the trifluoroacetate in an isotonic saline solution), Compound 2 (as the trifluoroacetate in an isotonic saline solution), and the hexapeptide Ac-RYYRWK-NH2 (SEQ ID NO: 1) (as the trifluoroacetate in an isotonic saline solution).

The test system of data set [1] is nociceptin-induced smooth muscle relaxation in mouse vas deferens. The data set can be described thus: Mouse vas deferens assay: antagonism of nociceptin-induced relaxation (Schild pA2). The procedure:
as §1
The effects of Ac-RYYRWK-NH2 (SEQ ID NO: 1) and Compound 1 on nociceptin-induced relaxation in the mouse vas deferens assay were also tested. […] Using the Schild equation ^[7], the pA2 values which indicates affinity of a compound as an antagonist were calculated.

A further data set concerns cirrhotic rats. As to the kind of experiment: Renal responses in rats with liver cirrhosis induced by common bile duct ligation and sham-operated controls. In kind it is in vivo, rat. As to conditions: i.v. bolus 65 nmol/kg. The procedure: Rats with liver cirrhosis induced by common bile duct ligation develop avid sodium and water retention and ascites within 2-4 weeks. The disturbed sodium and water balance in cirrhotic rats is in agreement with the pivotal clinical findings of edema and ascites in patients with liver cirrhosis. To examine the efficacy of Compound 1 in an experimental model of an edema-forming state, the diuretic response to an acute i.v. bolus injection of Compound 1 (65 nmol/kg) was evaluated in rats with liver cirrhosis induced by common bile duct ligation 4 weeks earlier. Prior to the experiments, rats were instrumented with chronic catheters in the urinary bladder, and in the femoral vein and artery. Renal responses to Compound 1 were compared with responses in sham-operated control rats. […] Relative changes in urine flow rate, sodium and potassium excretion after i.v. administration of 65 nmol/kg in sham-operated control animals are summarized in FIG. 7.
Changes in urine flow rate, free water clearance, fractional sodium excretion and fractional potassium excretion after i.v. administration of 65 nmol/kg in sham-operated control and cirrhotic animals are summarized in FIG. 8.

Data set [2] concerns opioid (non-selective opiate, δ, κ, μ), vasopressin (V1a, V1b, V2) and 40 other receptor, uptake and ion channel binding sites. As to the kind of experiment: Receptor, uptake and ion channel binding panel. Particulars: 0.1, 10 and 1000 nM (opioid, vasopressin); 10 μM (other sites). The procedure: In addition, Compound 1 has been tested in 5 opioid (non-selective opiate, δ, κ, μ, &ORL1), 3 vasopressin (V1a, V1b and V2) receptor binding assays at 0.1, 10, and 1000 nM as well as in 40 different receptor, uptake, and ion channel binding sites (A1, A2, α1, α2, β1, NE uptake, AT1, BZD, B2 (h), CCKA (˜CCK1), D1, D2, ETA(h), GABA, NMDA, H1, M, NK1(h), Y, N, opiate, PCP, 5-HT, 5-HT1B, 5-HT2A, 5-HT uptake, σ, V1) at 10 μM.

Data set [3] can be described thus: In vitro stability in heparin stabilised mouse plasma. In kind it is in vitro ADME. Particulars: heparinised mouse plasma, 37° C., read-out: half-life t½ of degradation. The procedure:
Degradation of peptides is almost exclusively seen in the presence of enzymes, e.g. in the bloodstream. An important feature of a putative drug is whether it is quickly degraded in vivo or whether it is able to conduct its effects over a longer period of time. To be able to examine the stability of the peptide conjugates of the present invention degradation was tested in heparin stabilised mouse plasma (obtained from Harlan Seralab, UK).
The stability studies were run in triplicate. 100 μL of a 1 mg/mL solution of the test compound (peptide conjugate) was added to an Eppendorf tube, containing 900 μL plasma, incubated at 37° C. Immediately after addition, a sample of 100 μL was removed and added to an Eppendorf tube, containing 10 μL of extraction solution (50% TFA (trifluoroacetic acid) in MeCN, v/v). This sample constitutes t=0. […] The samples are centrifuged at 20,000×g, and the supernatant was transferred to vials and analysed by high-performance liquid chromatography (HPLC).
The analysis was performed on a HP1100 HPLC with a quaternary pump. The column used was a Vydac 201SP5215, and the apparatus comprises an autosampler, a column oven, a variable UV detector and a fluorescence detector. […] These values were transferred to Microsoft Excel, where half-lives (t½) and rate constant (kobs) for Ac-RYYRWK-NH2 (SEQ ID NO: 1) and Compound 1 were determined by fitting to the equation.

Another data set deals with hORL1 receptor (Homo sapiens, UniProt P41146). As to the kind of experiment: Inhibition of forskoline-induced cAMP formation in HEK293 cells expressing human ORL1. In kind it is cell-based. Also noted: expressed in transfected cells; host or cells: HEK293. As to conditions: transfected HEK293 cells. (In general: Changes in cAMP serve as a functional read-out for many G protein-coupled receptors.)
hORL1 receptor, sequence (P41146 whole entry): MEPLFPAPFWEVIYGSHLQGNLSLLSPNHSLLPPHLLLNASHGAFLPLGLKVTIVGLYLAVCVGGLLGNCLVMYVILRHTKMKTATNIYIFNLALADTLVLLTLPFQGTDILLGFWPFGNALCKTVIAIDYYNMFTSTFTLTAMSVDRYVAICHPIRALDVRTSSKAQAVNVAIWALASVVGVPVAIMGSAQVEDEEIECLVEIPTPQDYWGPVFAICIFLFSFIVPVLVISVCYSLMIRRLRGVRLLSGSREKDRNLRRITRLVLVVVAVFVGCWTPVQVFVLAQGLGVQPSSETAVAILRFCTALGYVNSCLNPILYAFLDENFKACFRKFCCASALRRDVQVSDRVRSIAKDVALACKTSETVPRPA

Setting [4] is: cirrhotic and sham-operated rats.

By half-life is commonly meant the time needed for the level to fall by half in the phase considered. As to “Ac-RYYRWKKKKKKK-NH2 [Compound 1, Ac-RYYRWKKKKKKK-NH2]”, the “potency order for inhibition of electrically-induced contraction of the mouse vas deferens” value in the data set on mouse vas deferens is “nociceptin>Compound 1=Compound 2>>Ac-RYYRWK-NH2”. In addition, the pA2 value in data set [1] (Schild equation, antagonism of nociceptin-induced relaxation, n = 4) was 9.5 (n = 4). Besides, the “fold more potent as an antagonist than Ac-RYYRWK-NH2” value in data set [1] (nociceptin-induced smooth muscle relaxation, MVD assay) was “about 50 fold”. In addition, the “renal responses, cirrhotic versus control rats” value with cirrhotic rats was “renal responses were similar in cirrhotic and control rats”. In addition, in the data set on cirrhotic rats (FIG. 8), the “fractional excretion of sodium and potassium” value is “decrease in fractional excretion of sodium and potassium”; the urine flow rate entry is “marked increase in urine flow rate”. In the data set on cirrhotic rats (setting [4]), the glomerular filtration rate result is listed as “absence of changes in the glomerular filtration rate”; the “urinary excretion of sodium and potassium” value is “decrease in urinary excretion of sodium and potassium”. Also, the “binding to other receptors than the ORL1 receptor” value in data set [2] is “none or only weak binding to other receptors than the ORL1 receptor”. Further, the half-life at 0.1 mg/mL in data set [3] was found to be 5.97 h. Also, the “relative maximum relative to nociceptin” value at hORL1 receptor is given as 92%.

These data come from patent publication US7550425B2, “Diuretic peptide conjugates” (Zealand Pharma A/S, priority 2000, dated 2009).
